# What was measured:
# Type in all cases: physicochemical
# [1] = Example 8 reactive solvent extraction, 90% Alamine 336/10% 1-octanol, 25° C.; settings: pH 2 to 3
# Procedure: (§1) A variety of analytical methods can be employed to analyze the reactants and products produced using the present methods include HPLC, GC, ion selective electrodes, MS, NMR, etc. HPLC was used to measure glycolic acid and various related products. Briefly, samples are diluted with water (as needed to be within HPLC detection range) and mixed 1:1 with 0.2 M n-propanol in water (HPLC internal standard). HPLC Analytical Method: (BioRad HPX 87H ion exclusion column (BioRad, Hercules, Calif.), 300 mm×7.8 mm; 0.01 N H2SO4 mobile phase; 1.0 mL/min flow at 50° C.; 10 μL injection volume; RI detector and UV 210 nm, 20 min analysis time). HPLC Equipment: (Waters 2695 ‘Alliance’ Separations Module, 2410 Refractive Index Detector, 2487 Dual λ Absorbance Detector and Empower Pro Software (Waters Corp, Milford, Mass.).
# Solvent Extraction Using Approximately 90% C8-C10 Trialkylamine in Combination with 10% 1-Octanol at 25° C.
# (§2) Into a 4-mL glass reactor equipped with magnetic stir bar was placed 1 mL of a mixed solvent containing 90% (volume/volume) Alamine® 336 (Cognis), 10% (volume/volume) 1-octanol. The pH of an aqueous solution of ammonium glycolate (5 wt % to 40 wt %) was adjusted to pH 2 to 3 with concentrated sulfuric acid, then 1 mL of the resulting aqueous solution was added to the reactor. The resulting mixture was stirred for 30 minutes at 25° C.
# [2] = Example 2 reactive solvent extraction, 70% Alamine 336/10% MIBK/20% kerosene, 50° C.; settings: pH 2 to 3
# Procedure: as §1
# Solvent Extraction Using Approximately 70% C8-C10 Trialkylamine in Combination with 10% Methyl Isobutyl Ketone and 20% Kerosene at 50° C.
# as §2, with “70%” for “90%”, “methyl isobutyl ketone (MIBK) and 20% (volume/volume) kerosene.” for “1-octanol.”, “50°” for “25°”
# [3] = Example 17 back extraction with aqueous glycolic acid from loaded solvent (70% Alamine 336/10% MIBK/20% kerosene), 120° C.; settings: 40 psig nitrogen
# Procedure: as §1
# Following the procedures in Example 1, into a 1-L cylindrical glass vessel on an extraction mixer (mix by rotating back and forth vertically) was placed 100 mL of a mixed solvent containing 70% (volume/volume) Alamine® 336 (Cognis), 10% (volume/volume) methyl isobutyl ketone (MIBK) and 20% (volume/volume) kerosene. The pH of an aqueous solution of ammonium glycolate (10 wt % to 50 wt %) was adjusted to approximately pH 2 to 3 with concentrated sulfuric acid, then 100 mL of the resulting aqueous solution was added to the extraction mixer. […]
# [4] = Example 4 reactive solvent extraction, 90% Alamine 336/10% MIBK, 25° C.; settings: pH 2 to 3
# Procedure: as §1
# Solvent Extraction Using Approximately 90% C8-C10 Trialkylamine in Combination with 10% Methyl Isobutyl Ketone at 25° C.
# as §2, with “(Cognis) and” for “(Cognis),”, “methyl isobutyl ketone (MIBK).” for “1-octanol.”
# [5] = Example 21 back extraction with aqueous glycolic acid from loaded solvent (70% trialkylamine/30% toluene), 120° C.; settings: 70% C8-C10 trialkylamine/30% toluene, 40 psig nitrogen
# Procedure: as §1
# Back Extraction from a Loaded Solvent of Approximately 70% C8-C10 Trialkylamine in Combination with 30% Toluene
# The vessel was then closed, and the headspace purged with nitrogen. The resulting mixture was stirred for 60 minutes at 120° C. under 40 psig (˜275.8 kPa) nitrogen. The stirring was stopped and the two phases allowed to separate at 120° C., then the organic phase was sampled under pressure through the top dip tube into a Hoke cylinder, and aqueous phases was sampled under pressure through the bottom dip tube into another Hoke cylinder.
# [6] = Example 13 reactive solvent extraction, 90% Alamine 336/10% toluene, 75° C.; settings: pH 2 to 3
# Procedure: as §1
# Solvent Extraction Using Approximately 90% C8-C10 Trialkylamine in Combination with 10% Toluene at 75° C.
# as §2, with “toluene.” for “1-octanol.”, “75°” for “25°”
# [7] = initial 3.6 wt % glycolic acid in aqueous phase
# [8] = initial 8.5 wt % glycolic acid in aqueous phase
# [9] = initial 12.1 wt % glycolic acid in aqueous phase
# [10] = initial 16.1 wt % glycolic acid in aqueous phase
# [11] = initial 20.6 wt % glycolic acid in aqueous phase
# [12] = initial 25.1 wt % glycolic acid in aqueous phase
# [13] = initial 29.1 wt % glycolic acid in aqueous phase
# [14] = initial 32.8 wt % glycolic acid in aqueous phase
smiles,measurement,setting,value
O=C(O)CO [glycolic acid],Partition coefficient (wt % org./wt % aq.),[1]; [7],1.09
same,Partition coefficient (wt % org./wt % aq.),[1]; [8],1.03
same,Partition coefficient (wt % org./wt % aq.),[1]; [9],1.30
same,Partition coefficient (wt % org./wt % aq.),[1]; [10],1.20
same,Partition coefficient (wt % org./wt % aq.),[1]; [11],1.20
same,Partition coefficient (wt % org./wt % aq.),[1]; [12],1.10
same,Partition coefficient (wt % org./wt % aq.),[1]; [13],0.99
same,Partition coefficient (wt % org./wt % aq.),[1]; [14],0.82
same,Partition coefficient (wt % org./wt % aq.),[2]; [7],0.32
same,Partition coefficient (wt % org./wt % aq.),[2]; [8],0.66
same,Partition coefficient (wt % org./wt % aq.),[2]; [9],0.63
same,Partition coefficient (wt % org./wt % aq.),[2]; [10],0.74
same,Partition coefficient (wt % org./wt % aq.),[2]; [11],0.69
same,Partition coefficient (wt % org./wt % aq.),[2]; [12],0.83
same,Partition coefficient (wt % org./wt % aq.),[2]; [13],0.68
same,Partition coefficient (wt % org./wt % aq.),[2]; [14],0.61
same,Partition coefficient (wt % org./wt % aq.),"[3]; initial 20.0 wt % glycolic acid in aqueous phase, 16.0 wt % in loaded solvent",0.59
same,Partition coefficient (wt % org./wt % aq.),"[3]; initial 40.0 wt % glycolic acid in aqueous phase, 17.5 wt % in loaded solvent",0.51
same,Partition coefficient (wt % org./wt % aq.),[4]; [7],1.98
same,Partition coefficient (wt % org./wt % aq.),[4]; [8],1.57
same,Partition coefficient (wt % org./wt % aq.),[4]; [9],1.38
same,Partition coefficient (wt % org./wt % aq.),[4]; [10],1.44
same,Partition coefficient (wt % org./wt % aq.),[4]; [11],1.13
same,Partition coefficient (wt % org./wt % aq.),[4]; [12],1.19
same,Partition coefficient (wt % org./wt % aq.),[4]; [13],1.14
same,Partition coefficient (wt % org./wt % aq.),[4]; [14],0.92
same,Partition coefficient (wt % org./wt % aq.),"[5]; initial 20.0 wt % glycolic acid in aqueous phase, 14.2 wt % in loaded solvent",0.54
same,Partition coefficient (wt % org./wt % aq.),"[5]; initial 40.0 wt % glycolic acid in aqueous phase, 15.7 wt % in loaded solvent",0.54
same,Partition coefficient (wt % org./wt % aq.),[6]; [7],0.51
same,Partition coefficient (wt % org./wt % aq.),[6]; [8],0.58
same,Partition coefficient (wt % org./wt % aq.),[6]; [9],0.67
same,Partition coefficient (wt % org./wt % aq.),[6]; [10],0.63
same,Partition coefficient (wt % org./wt % aq.),[6]; [11],0.65
same,Partition coefficient (wt % org./wt % aq.),[6]; [12],0.73
same,Partition coefficient (wt % org./wt % aq.),[6]; [13],0.75
same,Partition coefficient (wt % org./wt % aq.),[6]; [14],0.75

# Reference: patent US20060160197A1 (priority 2004, published 2006)
